Data from patent EP0499926B1, “2-Substituted quinolines, process for their preparation as well as their use in medicaments” (BAYER AG, priority 1991, dated 1992).

System: 5-LO
Test: Lipoxygenase inhibition: release of leukotriene B4 (LTB4) from human polymorphonuclear leukocytes (PMN) after addition of substance and Ca ionophore, reverse phase HPLC
Type: cell-based
Conditions: polymorphkernige Humanleukozyten (PMN), Ca-Ionophor
From the text: Die pharmakologischen Wirkungen der erfindungsgemäßen Substanzen werden durch folgende Methode bestimmt:
Als Maß für die Lipoxyenase-Hemmung wurde die Freisetzung von Leukotrien B4 (LTB4) an polymorphkernigen Humanleukozyten (PMN) nach Zugabe von Substanzen und Ca-Ionophor mittels reverse phase HPLC nach Borgeat, P. et al., Proc. Nat. Acad. Sci, 76, 2148 -2152 (1979), bestimmt.
In der Tabelle 1 sind beispielhaft die nach diesem Test erzielten Werte einiger erfindungsgemäßer Verbindungen aufgeführt: Tabelle 1

| IC50 [nM] | Compound |
| --- | --- |
| 2500 | COC(=O)C(c1ccc(OCc2ccc3ccccc3n2)c(F)c1)C1CCCC1 (stereo not shown) [Beispiel 1, 2-[3-Fluor4-(chinolin-2-methoxy)phenyl]-2-cyclopentylessigsäuremethylester] |
| 690 | O=C(O)C(c1ccc(OCc2ccc3ccccc3n2)c(F)c1)C1CCCC1 (stereo not shown) [Beispiel 27, 2-[3-Fluor-4-(chinolin-2-yl-methoxy)phenyl]-2-cyclopentylessigsäure] |
| 790 | O=C(O)C(c1ccc(OCc2ccc3ccccc3n2)c(-n2cccc2)c1)C1CCCCCC1 (stereo not shown) [Beispiel 40] |
| 560 | C=Cc1cc(C(C(=O)O)C2CCCC2)ccc1OCc1ccc2ccccc2n1 (stereo not shown) [Beispiel 41] |
